Source: PubChem BioAssay AID256 (DTP/NCI, 2004)
Several values for one entry are separate records, joined by “and”; a condition that tells them apart may be missing. Equal entries are not always repeated. Toxic doses and inconclusive results are not listed. How the source made its calls: active means survival T/C of 150% or more; inactive means T/C below 125% in these data.

Test system: CD2F1 mice, L1210 leukemia ip, survival T/C
Assay: NCI In Vivo Anticancer Drug Screen. Data for tumor model L1210 Leukemia (intraperitoneal) in CD2F1 (CDF1) mice
Conditions: endpoint: mean survival time, higher = longer survival
How it was run: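 Read-out first: treated-group measurement over vehicle-control measurement, expressed as a ratio. Animals bore a transplanted tumor line and were dosed with compound or vehicle.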

[1] = dose: 100.0 mg/kg/injection, schedule: Q04DX003 (ip), vehicle: saline with Tween-80
[2] = dose: 200.0 mg/kg/injection, schedule: Q04DX003 (ip), vehicle: saline with Tween-80

Measured: T/C

CCN(CC)CCN(C)C(=O)C(O)(c1ccccc1)c1ccccc1
inactive: dose: 75.0 mg/kg/injection, schedule: Q01DX001 (ip), vehicle: saline 100 % of control | dose: 150.0 mg/kg/injection, schedule: Q01DX001 (ip), vehicle: saline 103 % of control | dose: 300.0 mg/kg/injection, schedule: Q01DX001 (ip), vehicle: saline 102 % of control

CCCCOC(=O)COc1c(Cl)ccc(Cl)c1Cl
inactive: dose: 100.0 mg/kg/injection, schedule: Q04DX002 (ip), vehicle: saline with Tween-80 102 % of control | dose: 200.0 mg/kg/injection, schedule: Q04DX002 (ip), vehicle: saline with Tween-80 95 % of control

NC(=O)c1c(N)sc2c1CCCC2
inactive: dose: 6.25 mg/kg/injection, schedule: Q01DX009 (ip), vehicle: saline with Tween-80 96 % of control | dose: 6.25 mg/kg/injection, schedule: Q04DX003 (ip), vehicle: saline with Tween-80 107 % of control | dose: 12.5 mg/kg/injection, schedule: Q01DX009 (ip), vehicle: saline with Tween-80 93 % of control | dose: 12.5 mg/kg/injection, schedule: Q04DX003 (ip), vehicle: saline with Tween-80 102 % of control | dose: 25.0 mg/kg/injection, schedule: Q01DX009 (ip), vehicle: saline with Tween-80 95 % of control | dose: 25.0 mg/kg/injection, schedule: Q04DX003 (ip), vehicle: saline with Tween-80 100 % of control

O=C(O)c1cscc1-c1ccccc1
inactive: [1] 104 % of control | [2] 104 % of control | dose: 400.0 mg/kg/injection, schedule: Q04DX003 (ip), vehicle: saline with Tween-80 102 % of control

CC1(C)CC(=O)C=C(NCc2ccccc2)C1
inactive: [1] 93 % of control | [2] 91 % of control

OCC(O)C1OC(c2ccccc2)OC(CO)C1O (stereo not given)
inactive: dose: 100.0 mg/kg/injection, schedule: Q04DX003 (ip), vehicle: saline + alcohol 106 % of control | dose: 200.0 mg/kg/injection, schedule: Q04DX003 (ip), vehicle: saline + alcohol 100 % of control | dose: 400.0 mg/kg/injection, schedule: Q04DX003 (ip), vehicle: saline + alcohol 95 % of control

COc1cccc2c1C(=O)c1c(O)c3c(c(O)c1C2=O)C[C@@](O)(C(=O)CO)C[C@@H]3OC1CC(N(C)C)C(O)C(C)O1 (stereo not given in full)
inactive: dose: 0.25 mg/kg/injection, schedule: Q01DX009 (ip), vehicle: saline 118 % of control and 108 % of control | dose: 0.5 mg/kg/injection, schedule: Q01DX009 (ip), vehicle: saline 117 % of control and 121 % of control | dose: 1.0 mg/kg/injection, schedule: Q01DX009 (ip), vehicle: saline 115 % of control and 124 % of control | dose: 2.0 mg/kg/injection, schedule: Q01DX009 (ip), vehicle: saline 97 % of control and 102 % of control

N=C(N)c1cn(C2OC(CO)C(O)C2O)c2ncnc(N)c12 (stereo not given)
inactive: dose: 0.63 mg/kg/injection, schedule: Q01DX009 (ip), vehicle: saline 123 % of control | dose: 2.5 mg/kg/injection, schedule: Q01DX009 (ip), vehicle: saline 124 % of control
